Reference: PubChem BioAssay AID330 (DTP/NCI, 2004)
“And” between values parts separate entries of the source, which are not always exact repeats. Equal entries are not always repeated. Toxic doses and inconclusive results are not listed. How the source made its calls: active means survival T/C of 150% or more; inactive means T/C below 125% in these data.

System: P388 leukemia ip, CD2F1 mice, survival T/C
Assay: NCI In Vivo Anticancer Drug Screen. Data for tumor model P388 Leukemia (intraperitoneal) in CD2F1 (CDF1) mice
Details: endpoint: median survival time, higher = longer survival
Outline: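 Mice carrying the transplanted tumor received test compound or vehicle. Survival was recorded in each group, and the value is the treated-group measurement divided by that of the vehicle-treated control group.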

[1] = dose: 50.0 mg/kg/injection, schedule: Q01DX005 (ip), vehicle: Klucel (hydroxypropylcellulose) (HPC)
[2] = dose: 100.0 mg/kg/injection, schedule: Q01DX005 (ip), vehicle: Klucel (hydroxypropylcellulose) (HPC)
[3] = dose: 200.0 mg/kg/injection, schedule: Q01DX005 (ip), vehicle: Klucel (hydroxypropylcellulose) (HPC)
[4] = dose: 50.0 mg/kg/injection, schedule: Q01DX009 (ip), vehicle: Klucel (hydroxypropylcellulose) (HPC)
[5] = dose: 100.0 mg/kg/injection, schedule: Q01DX009 (ip), vehicle: Klucel (hydroxypropylcellulose) (HPC)
[6] = dose: 60.0 mg/kg/injection, schedule: Q01DX005 (ip), vehicle: saline with Tween-80
[7] = dose: 120.0 mg/kg/injection, schedule: Q01DX005 (ip), vehicle: saline with Tween-80
[8] = dose: 50.0 mg/kg/injection, schedule: Q01DX009 (ip), vehicle: saline
[9] = dose: 100.0 mg/kg/injection, schedule: Q01DX009 (ip), vehicle: saline
[10] = dose: 200.0 mg/kg/injection, schedule: Q01DX009 (ip), vehicle: saline
[11] = dose: 400.0 mg/kg/injection, schedule: Q01DX009 (ip), vehicle: saline
[12] = dose: 12.5 mg/kg/injection, schedule: Q01DX009 (ip), vehicle: saline with Tween-80
[13] = dose: 25.0 mg/kg/injection, schedule: Q01DX009 (ip), vehicle: saline with Tween-80
[14] = dose: 50.0 mg/kg/injection, schedule: Q01DX009 (ip), vehicle: saline with Tween-80
[15] = dose: 100.0 mg/kg/injection, schedule: Q01DX009 (ip), vehicle: saline with Tween-80
[16] = dose: 6.25 mg/kg/injection, schedule: Q01DX009 (ip), vehicle: saline with Tween-80
[17] = dose: 200.0 mg/kg/injection, schedule: Q01DX009 (ip), vehicle: saline with Tween-80
[18] = dose: 50.0 mg/kg/injection, schedule: Q01DX005 (ip), vehicle: saline with Tween-80
[19] = dose: 100.0 mg/kg/injection, schedule: Q01DX005 (ip), vehicle: saline with Tween-80
[20] = dose: 12.5 mg/kg/injection, schedule: Q01DX009 (ip), vehicle: saline
[21] = dose: 25.0 mg/kg/injection, schedule: Q01DX009 (ip), vehicle: saline

Measured: T/C

CC12CC(=O)C3C(CCC4CC(OS(=O)(=O)O)CCC43C)C1CC1OC(=O)C=C12 (centres undefined)
inactive: [1] 98 % of control | [2] 100 % of control | [3] 94 % of control

CC1CC=CC(=O)CC1 (centres undefined)
inactive: [4] 112 % of control | [5] 117 % of control

O=C1c2cccnc2C(=O)N1CCO
inactive: dose: 50.0 mg/kg/injection, schedule: Q01DX005 (ip), vehicle: saline 95 % of control | dose: 100.0 mg/kg/injection, schedule: Q01DX005 (ip), vehicle: saline 100 % of control | dose: 200.0 mg/kg/injection, schedule: Q01DX005 (ip), vehicle: saline 101 % of control

O=C(O)CCCSC1=CC(=O)c2ccccc2C1=O
inactive: dose: 1.56 mg/kg/injection, schedule: Q04DX003 (ip), vehicle: DMSO 89 % of control | dose: 3.12 mg/kg/injection, schedule: Q04DX003 (ip), vehicle: DMSO 96 % of control | dose: 6.25 mg/kg/injection, schedule: Q04DX003 (ip), vehicle: DMSO 100 % of control and 93 % of control | dose: 12.5 mg/kg/injection, schedule: Q04DX003 (ip), vehicle: DMSO 100 % of control

COc1cc2c(cc1OC)[N+]([O-])=C(c1ccccc1)C2=O
inactive: [1] 94 % of control | [2] 93 % of control

[Fe+2].[Fe+2].c1ccc2c(c1)-c1nc-2nc2[n-]c(nc3nc(nc4[n-]c(n1)c1ccccc41)-c1ccccc1-3)c1cc3c4nc5nc(nc6[n-]c(nc7nc(nc([n-]4)c3cc21)-c1ccccc1-7)c1ccccc61)-c1ccccc1-5
inactive: [1] 100 % of control | [2] 110 % of control | [3] 106 % of control

CCOC(=O)C1=C(C(=O)c2ccc(C)cc2)C(c2ccc(Cl)cc2Cl)C(C(=O)c2ccc(C)cc2)=C(C(=O)OCC)N1
inactive: [6] 89 % of control | [7] 98 % of control

O=P(N1CCCC1)(N1CCCC1)N1CCCC1
inactive: [8] 100 % of control | [9] 102 % of control and 107 % of control | [10] 101 % of control | [11] 103 % of control

Cc1cc(Cl)ccc1NC(=O)Oc1nc2ccccc2o1
inactive: [12] 104 % of control and 96 % of control | [13] 99 % of control and 101 % of control | [14] 111 % of control and 96 % of control | [15] 101 % of control and 112 % of control

O=C1C(Cl)=CC(=NS(=O)(=O)c2ccccc2)C=C1Cl
inactive: dose: 3.13 mg/kg/injection, schedule: Q01DX009 (ip), vehicle: saline with Tween-80 100 % of control | [16] 105 % of control | dose: 6.25 mg/kg/injection, schedule: Q04DX003 (ip), vehicle: saline with Tween-80 95 % of control | [12] 120 % of control

CC(=O)c1oc(C)nc1C
inactive: [8] 104 % of control | [9] 100 % of control | [10] 104 % of control

Nc1nc(SCc2ccccc2[N+](=O)[O-])c2[nH]cnc2n1
inactive: [15] 104 % of control | dose: 100.0 mg/kg/injection, schedule: Q04DX003 (ip), vehicle: saline with Tween-80 100 % of control | [17] 95 % of control | dose: 200.0 mg/kg/injection, schedule: Q04DX003 (ip), vehicle: saline with Tween-80 100 % of control | dose: 400.0 mg/kg/injection, schedule: Q01DX009 (ip), vehicle: saline with Tween-80 90 % of control | dose: 400.0 mg/kg/injection, schedule: Q04DX003 (ip), vehicle: saline with Tween-80 91 % of control

CC1(Cl)CC2OC3(Br)C=CC(C)(O)C2(CC1Br)C3(C)C (centres undefined)
inactive: dose: 12.5 mg/kg/injection, schedule: Q01DX009 (ip), vehicle: Klucel (hydroxypropylcellulose) (HPC) 101 % of control | dose: 25.0 mg/kg/injection, schedule: Q01DX009 (ip), vehicle: Klucel (hydroxypropylcellulose) (HPC) 100 % of control | [4] 100 % of control | [5] 101 % of control

Nc1c(S(=O)(=O)O)cc(Br)c2c1C(=O)c1ccccc1C2=O
inactive: [18] 98 % of control | [19] 98 % of control | dose: 200.0 mg/kg/injection, schedule: Q01DX005 (ip), vehicle: saline with Tween-80 93 % of control

COC(=O)C1C(O)CCC2CN3CCc4c([nH]c5cccc(OC)c45)C3CC21 (centres undefined)
inactive: dose: 25.0 mg/kg/injection, schedule: Q01DX005 (ip), vehicle: Klucel (hydroxypropylcellulose) (HPC) 104 % of control | [1] 105 % of control | [2] 104 % of control | [3] 101 % of control

CNC(=O)OC1/C(C)=C\C(C)C(O)C(OC)CC(C)CC2=C(OC)C(=O)C=C(C2=O)N(C)C(=O)/C(C)=C/C=C\C1OC (centres undefined)
inactive: dose: 3.12 mg/kg/injection, schedule: Q01DX009 (ip), vehicle: DMSO 110 % of control and 98 % of control | dose: 6.25 mg/kg/injection, schedule: Q01DX009 (ip), vehicle: DMSO 99 % of control and 109 % of control and 110 % of control | dose: 12.5 mg/kg/injection, schedule: Q01DX009 (ip), vehicle: DMSO 104 % of control and 122 % of control and 123 % of control | dose: 25.0 mg/kg/injection, schedule: Q01DX009 (ip), vehicle: DMSO 109 % of control and 115 % of control and 122 % of control

CC1(C)OC2C(CO)OC(n3ccc(=O)[nH]c3=O)C2O1 (centres undefined)
inactive: [16] 107 % of control | [12] 109 % of control | [13] 100 % of control and 110 % of control and 120 % of control | [14] 108 % of control and 92 % of control and 97 % of control | [15] 90 % of control

COc1ccc(C(=O)CC[N+](C)(C)C)cc1
inactive: [20] 106 % of control | [21] 101 % of control

Cn1nc(C(N)=O)c2c(N)ncnc21
inactive: dose: 0.94 mg/kg/injection, schedule: Q01DX005 (ip), vehicle: saline with Tween-80 105 % of control | dose: 1.88 mg/kg/injection, schedule: Q01DX005 (ip), vehicle: saline with Tween-80 92 % of control | dose: 3.75 mg/kg/injection, schedule: Q01DX005 (ip), vehicle: saline with Tween-80 104 % of control | dose: 7.5 mg/kg/injection, schedule: Q01DX005 (ip), vehicle: saline with Tween-80 91 % of control

CCCCCCCCCCCCCCC[N+]1([O-])CCOCC1
inactive: [8] 90 % of control | [9] 91 % of control

O=C(O)Cc1cn2ccccc2n1
inactive: dose: 100.0 mg/kg/injection, schedule: Q01DX001 (ip), vehicle: Klucel (hydroxypropylcellulose) (HPC) 96 % of control | dose: 200.0 mg/kg/injection, schedule: Q01DX001 (ip), vehicle: Klucel (hydroxypropylcellulose) (HPC) 100 % of control | dose: 400.0 mg/kg/injection, schedule: Q01DX001 (ip), vehicle: Klucel (hydroxypropylcellulose) (HPC) 93 % of control

CCOC(=O)C(=O)C(C#N)c1ccccc1CC#N (centres undefined)
inactive: [18] 109 % of control | [19] 97 % of control

CC(=N)C1C(=O)C=C(C)OC1=O (centres undefined)
inactive: [8] 86 % of control | [9] 88 % of control | [10] 88 % of control

CC(C)=CCC1=C(O)c2ccccc2C(=O)C1=O
inactive: dose: 75.0 mg/kg/injection, schedule: Q01DX010 (ip), vehicle: other 120 % of control | [9] 118 % of control | dose: 100.0 mg/kg/injection, schedule: Q01DX010 (ip), vehicle: other 110 % of control | dose: 100.0 mg/kg/injection, schedule: Q04DX003 (ip), vehicle: saline 110 % of control | dose: 125.0 mg/kg/injection, schedule: Q01DX010 (ip), vehicle: other 120 % of control | [10] 118 % of control | dose: 200.0 mg/kg/injection, schedule: Q04DX003 (ip), vehicle: saline 115 % of control | [11] 95 % of control | dose: 400.0 mg/kg/injection, schedule: Q04DX003 (ip), vehicle: saline 120 % of control

COc1ccc(Br)cc1-c1cc2cccc[n+]2o1
inactive: [20] 101 % of control | [21] 109 % of control

CO/C=C/c1cc2c(cc1Br)OCO2
inactive: [6] 105 % of control | [7] 111 % of control | dose: 240.0 mg/kg/injection, schedule: Q01DX005 (ip), vehicle: saline with Tween-80 97 % of control

O=C(c1ccccc1)C(O)NC(=S)c1ccc(Cl)cc1 (centres undefined)
inactive: [14] 107 % of control | [15] 113 % of control | [17] 113 % of control

COC1=CC(C)C2CC3OC(=O)CC4C(C)=C(OC)C(=O)C(C2(C)C1=O)C34C (centres undefined)
inactive: [1] 95 % of control | [2] 101 % of control | [3] 101 % of control

O=C1c2c(O)cc(O)cc2OC(c2ccc(O)cc2O)C1O (centres undefined)
inactive: dose: 30.3 mg/kg/injection, schedule: Q01DX009 (ip), vehicle: saline 98 % of control | dose: 60.7 mg/kg/injection, schedule: Q01DX009 (ip), vehicle: saline 100 % of control | dose: 121.4 mg/kg/injection, schedule: Q01DX009 (ip), vehicle: saline 103 % of control
